According to patent US7625917B2, “Thiolesters and uses thereof” (priority 1998, dated 2009):

Legend:
HIV-1 virus = experiment: Virus inactivation by PCR assay of treated virions; assay type: cell-based
From the text: The thiolester-treated virions can also be tested for infectivity. The virions are suspended in media (rather than solubilized) and added to target cells. The cultures are then examined to determine whether the virions are still active. To determine whether the treated virus particles are active, the cells are monitored for the presence of intracellularly-synthesized viral RNA using, for example, the polymerase chain reaction (PCR) (Rice (1993) Proc. Natl. Acad. Sci. USA 90:9721;Turpin (1996) J. Virol. 70:6180). Alternatively, cytoprotection assays can be used (Weislow (1993) J. Natl. Cancer Inst. 81:577).
An example of a compound which can be used as a control in the gel mobility shift assay is azodicarbonamide (ADA), a compound which is commercially available from the Aldrich Chemical Company (Milwaukee, Wis.).

[1] = molecular target: T1, Virion-associated NCp7 proteins from cell-free HIV-1MN (Human immunodeficiency virus type 1 group M subtype B, UniProt P05888); experiment: Virion NCp7 cross-linking (non-reducing Western blotting)
T1 construct: attack on the mature NCp7 retroviral zinc fingers in the cell-free virus; endogenous in cells
Procedure: The interaction of zinc finger inhibitors, such as the thiolesters of the invention, with cell-free virus can result in modification of intravirion NCp7 protein and loss of infectivity. Virion-associated NCp7 proteins from cell-free HIV-1MN were treated with thiolester compounds 44 and 45. They were also evaluated by non-reducing Western blotting using HIV-1 NCp7-specific antibodies. […] Cross-linking by compound 45 was due to formation of intermolecular disulfide bonds because reduction with 2-mercaptoethanol (β-ME) completely reversed the gel retardation.
Virion cross linking was performed as described by Rice (1995) Science 270:1194-1197 and Turpin (1997) Antiviral Chem. Chemother. 8:60-67. Briefly, highly purified HIV-1MN (11.8 μg total protein) was incubated for 2 hour with concentrations of compound. Virions were concentrated and residual compound was removed by centrifugation (18,000×g, 1 h, 4° C.). The viral pellet was solubilized in 0.5 M Tris-HCl, (pH 6.8), 50% glycerol, 8% SDS and 0.4% bromophenol blue and proteins resolved by Western blotting. Western blotting to detect the expression of HIV-1 proteins in U1 cells or virus pellets for virion cross-linking experiments was carried out as described by Turpin (1996) J. Virol. 70:6180-6189. Briefly, 50 μg of total cellular protein for U1 experiments or the. total virion pellet (11.8 μg total viral protein) for NCp7 cross linking studies was resolved on 4 to 20% polyacrylamide gels in SDS with Tris-Glycine (Novex, San Diego Calif.). Samples for reduced gels were boiled for 5 min in the presence of 5% β-ME prior to loading. Resolved proteins were electroblotted on to polyvinylidene difluoride (PVDF) membranes, and HIV-1 specific proteins were detected using a mixture of goat anti-HIV-1 NCp7 and p24 or anti-NCp7 for virion proteins alone (a kind gift of L. E. Henderson, AIDS Vaccine Program NCI-FCRDC, Frederick, Md.). Western blots were developed using standard chemiluminescence methodologies, as produced and described by Dupont-NEN, Wilmington, Del.
Purified concentrated retrovirus and antisera against the purified NC protein of the virus can be used to test the ability of a specific compound to penetrate the virus and react with the NC protein by forming disulfide complexes in the core of the virus. Compound are mixed with the whole retrovirus under reaction conditions appropriate for the compound. The virus is then removed from the reagent by centrifugation and disrupted in, e.g., standard SDS-PAGE sample buffer with (reduced) and without (non-reduced) 2-mercaptoethanol. The viral proteins are then separated by standard SDS-PAGE and the sample examined for the presence or absence of the monomeric zinc finger protein in the non-reduced sample. Depending upon the virus used in the experiment and the conditions of electrophoresis, the zinc finger protein can be visualized by protein staining methods, or by immuno-blot methods. Compounds which react with the zinc finger protein by attacking the zinc finger complexes and forming disulfide cross-linked products inactivate the virus. Thus, compounds of interest (i.e., those which cause cross-linking), including the thiolesters of the invention, reduce the amount of monomeric zinc finger protein detected.

| SMILES | inactivation of HIV-1 virus (in words) (HIV-1 virus) | intravirion NCp7 cross-linking (in words) [1] |
| --- | --- | --- |
| NC(=O)N=NC(N)=O [ADA, azodicarbonamide] | inactivates HIV-1 virus | – |
| Cc1cn([C@H]2C[C@H](N=[N+]=[N-])[C@@H](CO)O2)c(=O)[nH]c1=O [AZT, 3′-Azido-2′-3′-dideoxythymidine, reference compound] | – | failed to cross-link NCp7 |
